The values below come from article PMC6543911, “Discovery of Coumarin as Microtubule Affinity-Regulating Kinase 4 Inhibitor That Sensitize Hepatocellular Carcinoma to Paclitaxel” (Frontiers in Chemistry, 2019).

For orientation: IC50 means the concentration that inhibits the measured activity by half. Read a low IC50 as higher potency. A word on the inhibition: it is the drop in the measured response relative to a control, in per cent. Low values mean little suppression, high ones strong suppression. Usually Kd stands for the equilibrium constant for the complex coming apart. Broadly, the viability is a read-out of living cells in per cent, often relative to untreated cells.

Series [1] has as its target T1, MARK4 catalytic domain (Homo sapiens, UniProt Q96L34).
T1 construct: The recombinant MARK4 catalytic domain was used as kinase; made in house; host or cells: E. coli BL21 (DE3)
Kind of series: Kinase activity assay (ADP-Glo) using MARK4 as enzyme. The note with it: for IC50: MARK4 5 nM, 100 μM ATP, 5 μM MAP4, 30 min, duplicate, means ± SEM. Type of series: biochemical. On the procedure: MARK4 catalytic domain sequence was subcloned into pET-28a vector. Protein expression in E. coli. BL21 (DE3) was induced by IPTG overnight at 16°C, and the cells were then pelleted by centrifugation at 4,000 rpm for 15 min and resuspended in 20 mL buffer (20 mM Tris-HCl, 150 mM NaCl, 25 mM imidazole pH 8.0). Proteins were purified by nickel-affinity chromatography followed by thrombin cleavage. The proteins were further purified by size-exclusion chromatography using a Superdex 75 column (GE Healthcare).
(§1) The kinase activity of MARK4 was measured via ADP-Glo™ kinase assay kit (Promega, USA) under manufacturer's instruction. The recombinant MARK4 catalytic domain was used as kinase. MARK4 (5 nM) activity was tested in a reaction (10 μL) containing 25 mM Tris (pH 7.6), 10 mM MgCl2, 150 mM NaCl, 1 mM EDTA, 1 mM DTT, 100 μM ATP, 5 μM MAP4 and varied concentrations of samples for 30 min. The reaction progress was monitored on Thermo Scientific Varioskan Flash Multimode Reader. Each data point was collected in duplicate and kinetic parameters were obtained using GraphPad Prism v6.0 software.
(ADP-Glo first removes unused ATP, then detects ADP through luciferase.)

For a further series, the target named is T2, PDK1 (Homo sapiens, UniProt O15530).
T2 sequence (O15530 1-556): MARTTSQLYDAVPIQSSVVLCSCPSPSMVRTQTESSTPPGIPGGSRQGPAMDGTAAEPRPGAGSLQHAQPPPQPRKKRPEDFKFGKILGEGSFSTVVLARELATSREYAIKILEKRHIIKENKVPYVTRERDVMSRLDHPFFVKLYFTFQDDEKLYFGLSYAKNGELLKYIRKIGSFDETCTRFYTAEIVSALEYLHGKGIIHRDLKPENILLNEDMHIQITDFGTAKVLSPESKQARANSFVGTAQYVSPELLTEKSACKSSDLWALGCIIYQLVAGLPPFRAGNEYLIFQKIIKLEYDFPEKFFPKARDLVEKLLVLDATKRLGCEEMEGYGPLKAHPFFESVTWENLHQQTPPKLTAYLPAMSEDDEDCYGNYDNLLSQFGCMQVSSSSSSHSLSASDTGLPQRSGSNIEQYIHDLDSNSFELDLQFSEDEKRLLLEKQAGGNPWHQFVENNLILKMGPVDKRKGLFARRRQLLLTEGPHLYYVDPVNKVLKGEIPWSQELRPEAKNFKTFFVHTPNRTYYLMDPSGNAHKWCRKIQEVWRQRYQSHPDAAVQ
In words: Kinase activity assay using PDK1 as enzyme. Type of series: biochemical. The conditions noted are these: duplicate, means ± SEM. On the procedure:
(§2) With these coumarins in hand, we performed kinase assay using MARK4 catalytic domain as enzyme to test the MARK4 inhibitory activity of these samples. […] To characterize the selectivity of compound 50, we performed kinase activity assay by using PDK1, AKT1, Src, and MARK4 as enzyme.
as §1

In the next series the target is AKT1 (Homo sapiens, UniProt P31749). Kind of series: Kinase activity assay using AKT1 as enzyme. Type of series: biochemical. The note with it: duplicate, means ± SEM. On the procedure: as §2, §1
A further series concerns the target Src (Homo sapiens, UniProt P12931). Kind of series: Kinase activity assay using Src as enzyme. The note with it: duplicate, means ± SEM. Format: biochemical. On the procedure:
as §2, §1

Series [2] deals with T1, MARK4 catalytic domain. Kind of series: Surface plasmon resonance (SPR) assay. The conditions noted are these: different sample concentrations, read-out: dissociation constant (Kd value) toward MARK4. Type of series: binding. On the procedure:
The interaction of small molecule with MARK4 was monitored by surface plasmon resonance (SPR) using a BIAcore T100 instrument (GE Healthcare, USA). In brief, recombinant MARK4 catalytic domain was immobilized on a carboxyl methylated dextran sensor chip (Sensor Chip CM3). A flow channel blocked by ethanolamine was used as control surface. The specific interaction of samples with the immobilized MARK4 catalytic domain was assessed. All samples were analyzed at a flow rate of 30 μL/min with 10 mM HEPES running buffer and contact time of 260 s. The surface was washed and regenerated with a 10 mM glycine-HCl buffer at pH 3.0 followed by a 30 min waiting time for dissolution after each experiment. The analyses were performed in BIAcore T100 evaluation software, version 2.0.2 (GE Healthcare, USA).
(In general: Surface plasmon resonance follows binding to a sensor surface in real time, without labels.)

The target in series [3] is T1, MARK4 catalytic domain. Kind of series: Thermal shift assay. The note with it: sample 1 μM. Format: binding. On the procedure: Recombinant MARK4 catalytic domain was diluted with PBS and divided into two aliquots, with one aliquot being treated with sample (1 μM) and the other aliquot with vehicle. After 20 min of incubation at room temperature, the respective mixtures were divided into smaller (40 μL) aliquots and heated individually at different temperatures for 3 min, followed by cooling at room temperature for 3 min. The appropriate temperatures were determined in preliminary CETSA experiments. The heated mixtures were centrifuged at 20,000 × g at 4°C for 20 min in order to separate the soluble fractions from precipitates. The supernatants were transferred to new microtubes and analyzed by HPLC.

Series [4] deals with HepG2 cells. Kind of series: Cell viability assay (MTT) in HepG2 cells. The conditions noted are these: for IC50: MTT. Type of series: cell-based. On the procedure:
(§3) HepG2 and SMMC-7721 cells were cultured in DMEM medium (Gibco) supplemented with 10% FBS (Gibco, USA). For transient transfection, cells were transfected with DNA by Lipofectamine 2000 (Thermo fisher, USA).
(§4) HCC cells (100 μL/each well, 20,000 cells/mL) were seeded in a 96-well culture plate and allowed to grow for 24 h in DMEM medium supplemented with 10% FBS and 1% penicillin/streptomycin sulfate. The cells were then treated with drugs or vehicle control and incubated in a 5% CO2 incubator for indicated time. At the end of incubation, 10 μL of MTT stock solution (5 mg/mL) was added into each well. The plate was continued to be incubated at 37°C for 4 h before the medium was removed. Then, DMSO (100 μL) was added into each well, followed by thorough shaking. The absorbance of the formazan product was measured at 570 nm on Thermo Scientific Varioskan Flash Multimode Reader. The IC50 value was obtained by fitting dose-response data to a three parametric non-linear regression model using GraphPad Prism 6.0 software.

Series [5] has as its system SMMC-7721 cells. Kind of series: Cell viability assay (MTT) in SMMC-7721 cells. Format: cell-based. On the procedure:
as §3, §4

For the next series, the system named is HEK-293T cells. In words: Cell viability assay in HEK-293T cells. The conditions noted are these: human normal HEK-293T cells. Format: cell-based.
Series [6] deals with HepG2 cells. Kind of series: Cell apoptosis assay (Annexin V-FITC/PI flow cytometry) in HepG2 cells. The conditions noted are these: for apoptosis, single agent: 2.5 μM alone. Format: cell-based. On the procedure:
(§5) HCC cells (2 × 10^5 cells/well) were plated in a 6-well plate and treated with samples at 37°C for 36 h. After incubation, the cells were harvested and washed with ice-cold PBS. Annexin V-FITC-PI apoptosis detection kit (Abcam, USA) was used for a direct observation of viable, early apoptotic, and late apoptotic cells. Annexin V-FITC and propidium iodide were added according to the manufacturer's instructions, and the samples were incubated in the dark for 15 min. The apoptosis ratio was analyzed using BD FACSCalibur flow cytometry.
In general terms: In flow cytometry, cells or beads pass a laser one at a time.

Series [7] has as its system SMMC-7721 cells. In words: Cell apoptosis assay (Annexin V-FITC/PI flow cytometry) in SMMC-7721 cells. Type of series: cell-based. The conditions noted are these: 15 μM, 36 h. On the procedure:
as §5

The subject of series [8] is HepG2 cells. Kind of series: Colony formation assay of HepG2 cells. Type of series: cell-based. The conditions noted are these: compared with vehicle.
The next series relates to MAP4 phosphorylation. In words: Immunoblotting of MAP4 phosphorylation in HepG2 cell lysates. The note with it: HepG2 cells, 15 μM, 36 h. Format: cell-based. On the procedure:
HepG2 cells (2 × 10^5 cells/well) were plated in a 6-well plate and treated with compound 50 (15 μM) and vehicle at 37°C for 36 h. Cells were harvested, washed with physiological saline, and lysed with RIPA lysis buffer (Beyotime) including phosphatase and protease cocktail (Bimake). Protein was quantified by BCA protein assay kit (Bestbio) and subjected to SDS-PAGE. The separated proteins were transferred onto PVDF membranes and probed with antibody (anti-p-MAP4, anti-MAP4, and anti-actin) and peroxidase-conjugated secondary antibody, which was followed by enhanced chemiluminescence detection (Amersham Biosciences).

In a further series the target is MARK4. More on the design: method as in Naz et al., 2015. The conditions noted are these: ref Naz et al., 2015; read-out: Kd between BX-795 and MARK4; cited from earlier work.
[9] abbreviates: HepG2 cells transiently transfected with MARK4-knockdown vs control vectors.

Bounds are passed on as bounds.

T1 sequence (Q96L34 59-310 limits assumed): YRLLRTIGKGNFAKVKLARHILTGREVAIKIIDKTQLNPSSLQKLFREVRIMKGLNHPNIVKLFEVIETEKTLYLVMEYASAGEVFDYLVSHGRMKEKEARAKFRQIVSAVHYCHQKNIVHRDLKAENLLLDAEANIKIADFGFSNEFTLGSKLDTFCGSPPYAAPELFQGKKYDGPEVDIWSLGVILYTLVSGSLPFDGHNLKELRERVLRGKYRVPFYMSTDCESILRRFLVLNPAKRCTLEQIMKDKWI
Chain of Src (P12931 whole entry, species assumed): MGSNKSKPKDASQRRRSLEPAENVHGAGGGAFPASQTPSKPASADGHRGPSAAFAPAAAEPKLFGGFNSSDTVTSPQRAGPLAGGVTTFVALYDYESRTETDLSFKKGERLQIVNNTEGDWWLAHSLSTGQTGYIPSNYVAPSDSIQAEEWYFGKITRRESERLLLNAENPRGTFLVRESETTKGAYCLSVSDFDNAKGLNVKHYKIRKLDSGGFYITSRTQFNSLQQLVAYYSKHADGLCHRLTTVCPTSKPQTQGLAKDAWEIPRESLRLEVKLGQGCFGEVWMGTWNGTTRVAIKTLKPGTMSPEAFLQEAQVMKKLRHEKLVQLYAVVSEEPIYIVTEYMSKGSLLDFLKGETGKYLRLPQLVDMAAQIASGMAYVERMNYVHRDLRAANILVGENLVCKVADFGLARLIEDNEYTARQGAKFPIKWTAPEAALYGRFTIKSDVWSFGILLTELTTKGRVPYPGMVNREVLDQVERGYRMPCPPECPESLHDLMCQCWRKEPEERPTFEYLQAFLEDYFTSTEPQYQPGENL
Chain of AKT1 (P31749 whole entry, species assumed): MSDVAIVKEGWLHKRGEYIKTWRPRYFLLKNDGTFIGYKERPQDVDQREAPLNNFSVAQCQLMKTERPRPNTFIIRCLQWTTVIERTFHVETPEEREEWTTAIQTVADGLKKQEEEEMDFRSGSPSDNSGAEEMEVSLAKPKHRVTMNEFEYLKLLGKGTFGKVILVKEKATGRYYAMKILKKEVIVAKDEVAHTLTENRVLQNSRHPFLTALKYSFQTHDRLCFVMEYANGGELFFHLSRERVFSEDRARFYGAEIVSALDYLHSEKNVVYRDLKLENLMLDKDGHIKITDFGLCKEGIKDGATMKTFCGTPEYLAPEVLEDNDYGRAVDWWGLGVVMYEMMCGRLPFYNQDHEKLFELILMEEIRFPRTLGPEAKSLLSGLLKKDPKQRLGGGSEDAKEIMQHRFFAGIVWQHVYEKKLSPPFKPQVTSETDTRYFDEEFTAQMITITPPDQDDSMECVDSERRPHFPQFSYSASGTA

As to `COc1ccc2oc(=O)c(C(=O)c3ccccc3)cc2c1` [Compound 50, 3-benzoyl-6-methoxy-2H-chromen-2-one], the IC50 against MARK4 catalytic domain [1] came to 1.3 ± 0.102 µM; at PDK1, 5.97 ± 0.289 µM; at AKT1, 11.8 ± 0.336 µM; against Src it was 19 ± 1.32 µM; with HepG2 cells [4] (Homo sapiens, HepG2 cells) it was 11.2 µM; in the series with SMMC-7721 cells [5] (Homo sapiens, MTT) it was 12.8 µM. In addition, on MARK4 catalytic domain [1] (at 10 μM), the inhibition at 10 µM is approximately 80%. Also, the Kd on MARK4 catalytic domain [2] was found to be 0.346 µM. The “temperature shift of MARK4 thermal stability (ΔT)” value at MARK4 catalytic domain [3] worked out at 3.13 °C. In the series with HepG2 cells [4] (setting [9]), the “effect of MARK4-knockdown on anti-proliferative activity” value is on record as “significantly attenuated”. Also, the “inhibitory activity of paclitaxel in the presence of compound” value was “remarkably enhanced” with HepG2 cells [4] (HepG2 cells, varied paclitaxel concentrations with 2.5 μM compound 50) and “remarkably enhanced” in the series with SMMC-7721 cells [5] (varied paclitaxel concentrations with 2.5 μM compound 50). In addition, the viability at 2.5 µM in the series on HepG2 cells [4] (Homo sapiens, HepG2 cells, 2.5 μM compound alone, read-out: cell viability upon treatment) is more than 80%; in the series on SMMC-7721 cells [5] (Homo sapiens, 2.5 μM compound alone, read-out: cell viability upon treatment), more than 80%. In addition, the “concentrations at which cell viability of HEK-293T cells was suppressed” value in the series with HEK-293T cells was more than 50 µM. For the same molecule, the “apoptosis, single agent” value with HepG2 cells [6] is “unable to trigger distinct apoptosis”. For the same molecule, the “apoptosis: cell numbers of early and late apoptotic cells” value with HepG2 cells [6] (15 μM, 36 h) is on record as “obviously increased”; with SMMC-7721 cells [7] it was “obviously increased”. The “apoptosis, combination with paclitaxel” value with HepG2 cells [6] (compound 50 2.5 μM in combination with paclitaxel 2.5 μM) was “activated HCC apoptosis”. In addition, the “colony formation of HepG2 cells” value in the series with HepG2 cells [8] is given as “significantly suppressed”. The “level of MAP4 phosphorylation” value with MAP4 phosphorylation was “decreased”.
For the molecule `CC(=O)O[C@H]1C(=O)[C@@]2(C)[C@H]([C@H](OC(=O)c3ccccc3)[C@]3(O)C[C@H](OC(=O)[C@H](O)[C@@H](NC(=O)c4ccccc4)c4ccccc4)C(C)=C1C3(C)C)[C@]1(OC(C)=O)CO[C@@H]1C[C@@H]2O` [paclitaxel], the “sensitivity in MARK4-knockdown cells” value with HepG2 cells [4] (setting [9]) is “increased sensitivity”. For the same molecule, the “apoptosis, single agent” value in the series on HepG2 cells [6] was “unable to trigger distinct apoptosis”.
For `COc1cccc(-c2cc3cc(Cl)cc(Cl)c3oc2=O)c1` [6,8-dichloro-3-(3-methoxyphenyl)-2H-chromen-2-one], the IC50 at MARK4 catalytic domain [1] was found to be 7.8 µM; in the series on HepG2 cells [4] (Homo sapiens, HepG2 cells), 15.9 µM.
For the molecule `O=C(NCCCNc1nc(Nc2cccc(NC(=O)N3CCCC3)c2)ncc1I)c1cccs1` [BX-795, reference compound], the half-maximal inhibitory concentration (IC50) on MARK4 catalytic domain [1] is 4.99 ± 0.812 µM; on PDK1, 1.68 ± 0.192 µM; against AKT1, 2.87 ± 0.269 µM; on Src, 5.87 ± 0.405 µM. In addition, the Kd at MARK4 was 6.46 µM.
